The target in one data set is Cytochrome P450 2D6 (Homo sapiens, UniProt P10635). Kind of data set: Inhibition of human CYP2D6. It is filed as ADME.
In data set [1] the target is Histamine H3 receptor (Homo sapiens, UniProt Q9Y5N1). Kind of data set: Antagonist activity at human histamine H3 receptor expressed in CHOK1 cells assessed as inhibition of GTPgammaS binding by scintillation proximity assay. It is filed as functional, cell-based, CHO-K1.
The subject of data set [2] is Rattus norvegicus. Description: Reversal of RAMH-induced dipsogenia in Lister Hooded rat at 3 mg/kg, po. It is filed as functional.
Data set [3] concerns Liver microsome. Description: Intrinsic clearance in rat liver microsomes. It is filed as ADME. In general terms: Microsomes from liver hold many membrane-bound enzymes, among them those of drug oxidation.
Data set [4] deals with Liver microsome. Description: Intrinsic clearance in human liver microsomes. It counts as ADME.
Data set [5] is described as follows: Volume of distribution at steady state in iv dosed rat after 1 hr. It counts as ADME, organism-based. The settings on record: in vivo, read-out: Vdss.
Data set [6] is described as follows: Drug level in Lister Hooded rat brain at 3 mg/kg, po after 2 hrs. It is filed as ADME, organism-based. Further details: dose 3 mg/kg, route oral. As to conditions: read-out: Ct.
Data set [7] can be described thus: Lipophilicity, log D of the compound. It is filed as physicochemical. As to conditions: octanol/water.
The target in a further data set is Albumin (Homo sapiens, UniProt P02768). Description: Binding affinity to human serum albumin. The settings on record: isolated protein. It is filed as ADME.
Chain of Albumin (P02768 whole entry): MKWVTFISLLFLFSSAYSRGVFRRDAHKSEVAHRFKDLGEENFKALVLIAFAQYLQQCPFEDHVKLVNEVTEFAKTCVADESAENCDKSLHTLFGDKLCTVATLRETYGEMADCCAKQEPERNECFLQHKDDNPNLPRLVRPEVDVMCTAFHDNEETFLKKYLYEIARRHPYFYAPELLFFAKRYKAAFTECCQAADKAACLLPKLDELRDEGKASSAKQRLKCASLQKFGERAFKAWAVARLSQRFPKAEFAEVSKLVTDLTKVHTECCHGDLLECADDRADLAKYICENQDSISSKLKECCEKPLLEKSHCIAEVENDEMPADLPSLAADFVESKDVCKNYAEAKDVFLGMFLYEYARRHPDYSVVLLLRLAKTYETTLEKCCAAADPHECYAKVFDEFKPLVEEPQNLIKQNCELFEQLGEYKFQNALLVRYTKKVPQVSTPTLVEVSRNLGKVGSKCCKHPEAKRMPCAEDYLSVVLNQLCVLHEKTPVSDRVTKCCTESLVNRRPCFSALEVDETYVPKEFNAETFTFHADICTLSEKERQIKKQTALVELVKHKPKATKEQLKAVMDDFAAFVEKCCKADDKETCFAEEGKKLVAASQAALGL
The test system of data set [8] is Rattus norvegicus. Kind of data set: Ex vivo binding affinity to histamine H3 receptor in po dosed Lister Hooded rat. It is filed as functional.
The target of a further data set is hERG (KCNH2) (Homo sapiens, UniProt Q12809). Kind of data set: Inhibition of human ERG at 10 uM by patch clamp assay. In general terms: In patch-clamp work, channel activity is measured electrically.
Chain of hERG (KCNH2) (Q12809 whole entry): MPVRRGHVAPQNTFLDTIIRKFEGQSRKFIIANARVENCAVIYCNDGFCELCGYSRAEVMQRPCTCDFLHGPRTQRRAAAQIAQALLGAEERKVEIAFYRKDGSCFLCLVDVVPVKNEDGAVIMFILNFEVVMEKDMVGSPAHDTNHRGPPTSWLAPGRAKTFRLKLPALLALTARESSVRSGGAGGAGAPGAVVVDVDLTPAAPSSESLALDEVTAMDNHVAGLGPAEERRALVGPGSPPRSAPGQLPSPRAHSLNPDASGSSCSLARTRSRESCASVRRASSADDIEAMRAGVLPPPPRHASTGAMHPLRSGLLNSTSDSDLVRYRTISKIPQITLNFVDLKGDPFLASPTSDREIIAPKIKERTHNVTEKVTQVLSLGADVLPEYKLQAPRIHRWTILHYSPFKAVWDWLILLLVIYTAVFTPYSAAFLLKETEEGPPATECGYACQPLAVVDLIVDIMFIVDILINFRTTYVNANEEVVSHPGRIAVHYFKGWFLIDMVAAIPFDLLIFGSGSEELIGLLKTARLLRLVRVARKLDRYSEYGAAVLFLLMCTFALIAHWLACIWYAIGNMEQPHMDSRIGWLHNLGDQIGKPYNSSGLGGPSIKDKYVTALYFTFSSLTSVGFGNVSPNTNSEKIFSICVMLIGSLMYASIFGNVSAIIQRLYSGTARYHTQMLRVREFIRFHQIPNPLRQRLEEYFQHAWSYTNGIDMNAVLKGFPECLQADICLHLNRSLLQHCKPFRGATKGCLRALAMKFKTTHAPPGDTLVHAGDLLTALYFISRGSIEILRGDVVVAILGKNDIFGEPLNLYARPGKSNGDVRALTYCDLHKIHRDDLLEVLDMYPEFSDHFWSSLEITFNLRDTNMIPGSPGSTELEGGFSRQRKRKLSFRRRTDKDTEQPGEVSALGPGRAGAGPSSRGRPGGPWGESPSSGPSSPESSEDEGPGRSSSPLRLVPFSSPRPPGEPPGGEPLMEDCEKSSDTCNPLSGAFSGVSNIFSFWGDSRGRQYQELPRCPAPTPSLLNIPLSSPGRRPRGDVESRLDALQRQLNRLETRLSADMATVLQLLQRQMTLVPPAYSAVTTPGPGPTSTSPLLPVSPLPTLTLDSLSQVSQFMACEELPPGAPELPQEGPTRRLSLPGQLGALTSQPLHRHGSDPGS
The nature of data set [9]: Dissociation constant, pKa of the compound. It counts as physicochemical.
A short description of data set [10]: Total blood clearance in iv dosed rat after 1 hr. It counts as ADME, organism-based. As to conditions: whole blood.
The nature of data set [11]: Drug level in Lister Hooded rat blood at 3 mg/kg, po after 2 hrs. It counts as ADME, organism-based. Further details: dose 3 mg/kg, route oral. As to conditions: whole blood, read-out: Ct.
Data set [12] in a line: Ratio of drug level in brain to blood in Lister Hooded rat at 3 mg/kg, po after 2 hrs. It is filed as ADME, organism-based. Further details: dose 3 mg/kg, route oral.
Data set [13] addresses Histamine H3 receptor (Rattus norvegicus, UniProt Q9QYN8). Kind of data set: Displacement of [3H]R-alpha-methylhistamine from histamine H3 receptor in rat cerebral cortical membranes after 45 mins by liquid scintillation spectrometry. It is filed as cell membranes.
The nature of data set [14]: Terminal half life in iv dosed rat after 0.5 hrs. The settings on record: in vivo, read-out: beta t1/2 (converted). It counts as ADME, organism-based.
The target in another data set is Histamine H1 receptor (Homo sapiens, UniProt P35367). Kind of data set: Antagonist activity at human recombinant histamine H1 receptor expressed in CHO cells assessed as inhibition of histamine-induced effect by FLIPR assay. It is filed as cell-based.
Chain of Histamine H1 receptor (P35367 whole entry): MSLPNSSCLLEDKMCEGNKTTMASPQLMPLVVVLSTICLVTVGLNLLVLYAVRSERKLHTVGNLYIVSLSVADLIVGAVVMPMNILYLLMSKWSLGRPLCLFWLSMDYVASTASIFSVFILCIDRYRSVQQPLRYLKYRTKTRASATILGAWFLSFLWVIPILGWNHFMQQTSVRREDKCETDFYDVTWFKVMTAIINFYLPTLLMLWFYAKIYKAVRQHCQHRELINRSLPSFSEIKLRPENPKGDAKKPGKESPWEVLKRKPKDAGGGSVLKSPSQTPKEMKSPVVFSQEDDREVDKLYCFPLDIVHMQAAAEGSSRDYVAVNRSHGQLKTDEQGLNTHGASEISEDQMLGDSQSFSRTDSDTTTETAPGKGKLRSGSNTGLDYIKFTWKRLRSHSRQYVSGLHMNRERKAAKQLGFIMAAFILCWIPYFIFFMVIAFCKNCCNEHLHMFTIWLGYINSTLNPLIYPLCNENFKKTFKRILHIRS
Data set [15] deals with Rattus norvegicus. Description: Reversal of RAMH-induced dipsogenia in Lister Hooded rat at 10 mg/kg, ip. It counts as functional. The settings on record: route intraperitoneal.

The structures appear in SMILES notation.

Chain of Cytochrome P450 2D6 (P10635 whole entry): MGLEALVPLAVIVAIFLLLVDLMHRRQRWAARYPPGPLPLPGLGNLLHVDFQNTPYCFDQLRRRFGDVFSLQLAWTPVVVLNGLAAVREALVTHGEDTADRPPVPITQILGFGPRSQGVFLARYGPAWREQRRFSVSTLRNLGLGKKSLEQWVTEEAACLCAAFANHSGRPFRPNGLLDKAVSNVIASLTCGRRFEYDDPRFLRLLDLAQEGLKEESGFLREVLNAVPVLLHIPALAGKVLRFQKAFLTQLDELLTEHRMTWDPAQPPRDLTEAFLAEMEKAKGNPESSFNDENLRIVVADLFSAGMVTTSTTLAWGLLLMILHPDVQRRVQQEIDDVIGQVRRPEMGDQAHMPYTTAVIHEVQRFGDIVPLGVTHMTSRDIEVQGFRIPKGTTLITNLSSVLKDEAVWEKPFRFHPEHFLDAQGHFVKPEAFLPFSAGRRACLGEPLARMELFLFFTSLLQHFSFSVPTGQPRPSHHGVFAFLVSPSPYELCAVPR
Chain of Histamine H3 receptor (Homo sapiens, UniProt Q9Y5N1) (Q9Y5N1 whole entry): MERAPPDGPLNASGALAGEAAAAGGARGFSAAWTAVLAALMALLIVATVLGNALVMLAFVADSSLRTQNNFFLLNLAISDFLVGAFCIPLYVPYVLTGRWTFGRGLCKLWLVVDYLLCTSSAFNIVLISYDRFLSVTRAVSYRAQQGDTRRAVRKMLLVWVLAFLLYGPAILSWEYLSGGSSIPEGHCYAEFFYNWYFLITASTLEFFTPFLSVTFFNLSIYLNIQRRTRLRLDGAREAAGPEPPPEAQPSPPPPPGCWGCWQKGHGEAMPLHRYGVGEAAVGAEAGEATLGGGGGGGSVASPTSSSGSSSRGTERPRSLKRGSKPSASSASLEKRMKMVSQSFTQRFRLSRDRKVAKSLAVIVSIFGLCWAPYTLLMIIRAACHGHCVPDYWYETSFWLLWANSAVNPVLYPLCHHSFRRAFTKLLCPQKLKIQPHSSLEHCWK
Chain of Histamine H3 receptor (Rattus norvegicus, UniProt Q9QYN8) (Q9QYN8 whole entry): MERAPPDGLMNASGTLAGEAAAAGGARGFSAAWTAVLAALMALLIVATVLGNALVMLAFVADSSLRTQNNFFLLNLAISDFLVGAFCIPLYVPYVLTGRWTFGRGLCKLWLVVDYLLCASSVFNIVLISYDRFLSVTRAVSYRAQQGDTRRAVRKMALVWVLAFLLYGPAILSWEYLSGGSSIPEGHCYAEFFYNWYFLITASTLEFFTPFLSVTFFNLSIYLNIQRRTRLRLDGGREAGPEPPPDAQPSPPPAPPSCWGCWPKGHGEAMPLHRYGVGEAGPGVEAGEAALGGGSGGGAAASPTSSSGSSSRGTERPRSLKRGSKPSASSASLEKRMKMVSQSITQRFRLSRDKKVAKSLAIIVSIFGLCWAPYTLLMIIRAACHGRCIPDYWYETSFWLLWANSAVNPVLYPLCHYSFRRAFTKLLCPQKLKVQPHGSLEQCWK

Usually IC50 stands for the concentration at which inhibition is half-maximal. Low readings indicate higher potency, high ones lower potency. By Ki is commonly meant a measure of affinity in units of concentration, obtained from inhibition or displacement. Consider `CS(=O)(=O)N1CCC(Oc2ccc3c(c2)CCN(C2CCC2)CC3)CC1`, for which the IC50 on Cytochrome P450 2D6 was 13000 nM. Further, on Histamine H3 receptor [1], the Ki is 0.794 nM. The Activity in the data set on Rattus norvegicus [2] stood at 6%. The CLH in the data set on Liver microsome [3] came out at 2.9 mL/min/g; in the data set with Liver microsome [4], 0.5 mL/min/g.

As for `CC(=O)N1CCc2ccc(OCCCN3CCCCC3)cc2CC1`, the Ki at Histamine H3 receptor [1] was 15.8 nM.

For orientation: logD means lipophilicity at a set pH, counting ionised and neutral species. A higher logD goes with a more lipophilic compound. Broadly, the ED50 is the dose that gives a 50% effect, or the effect in half of the subjects. As usually defined, the inhibition is the share of the control response that was lost under treatment. Read a low inhibition as a response near the control. Usually pKa stands for the negative logarithm of the acid dissociation constant. The low end stands for a group that gives up its proton readily, the high end for a group that holds its proton tightly. As a reminder, the clearance is the volume of plasma or blood freed of the substance per unit of time. A high value points to a high capacity for elimination. As usually defined, the Kp is tissue or fluid exposure divided by exposure in the circulation. As for `O=C(N1CCOCC1)N1CCC(Oc2ccc3c(c2)CCN(C2CCC2)CC3)CC1`, the Vd in [5] stood at 4.6 L/kg. The results for the concentration at 2 h in data set [6] and in data set [11] were 530 nM and 470 nM, respectively. Besides, the results for the Ki at Histamine H3 receptor [1] and on Histamine H3 receptor [13] were 1 nM and 12.6 nM, respectively. Further, the results for the Activity with Rattus norvegicus [2] and at Albumin were 100% and 49%, respectively. For the same molecule, in [7], the logD turned out to be 2.2. Moreover, the CLH was determined as 1.1 mL/min/g in the data set with Liver microsome [3] and 0.9 mL/min/g in the data set with Liver microsome [4]. Also, in the data set on Rattus norvegicus [8], the ED50 was 2.2 mg/kg. On hERG (KCNH2), this molecule displayed an inhibition at 10 µM of under 30%. The pKa in data set [9] amounted to 9.2. This molecule also returned a clearance in data set [10] of 63 mL/min/kg. Also, the Kp at 2 h in data set [12] was found to be 1.1. For the same molecule, the half-life in data set [14] is 1.2 h.

For `c1cc2c(cc1OCCCN1CCCCC1)CCNCC2`, the Ki on Histamine H3 receptor [1] is 3.98 nM; on Histamine H1 receptor it was 1260 nM.

With `O=C(c1ccc(Cl)cc1)N1CCC(Oc2ccc3c(c2)CCN(C2CCC2)CC3)CC1`, the Ki at Histamine H3 receptor [1] is 0.501 nM. Besides, the Activity in the data set with Rattus norvegicus [2] came to 89%. For the same molecule, the CLH amounted to 2.9 mL/min/g with Liver microsome [3] and 0.8 mL/min/g in the data set with Liver microsome [4].

`c1cc2c(cc1OCC1CCNCC1)CCN(C1CCC1)CC2` showed an IC50 against Cytochrome P450 2D6 of 19000 nM. The Ki at Histamine H3 receptor [1] is 0.501 nM. Besides, the Activity in the data set with Rattus norvegicus [2] is recorded as 44%. The CLH in the data set with Liver microsome [3] was determined as 0.7 mL/min/g; with Liver microsome [4], 0.9 mL/min/g.

Regarding `CN1CCc2ccc(OCc3ccccc3)cc2CC1`, the Ki at Histamine H3 receptor [1] was 316 nM.

Molecule `c1ccc(COc2ccc3c(c2)CCN(C2CCCC2)CC3)cc1` yielded an IC50 against Cytochrome P450 2D6 of 600 nM. Moreover, on Histamine H3 receptor [1], the Ki was 0.794 nM. The CLH in the data set on Liver microsome [3] is over 50 mL/min/g; in the data set on Liver microsome [4], 19 mL/min/g.

Take `c1ccc(COc2ccc3c(c2)CCN(Cc2ccccc2)CC3)cc1`: the Ki at Histamine H3 receptor [1] is over 1000 nM.

In the case of `c1cc2c(cc1OCCCN1CCCCC1)CCN(CC1CCCO1)CC2` (centres undefined), the Ki on Histamine H3 receptor [1] was 0.501 nM; on Histamine H1 receptor, 2000 nM.

Consider `c1cc2c(cc1OCCCN1CCOCC1)CCNCC2`, for which the Ki on Histamine H3 receptor [1] is 100 nM.

For the molecule `FC1(F)CCN(CCCOc2ccc3c(c2)CCNCC3)CC1`, at Histamine H3 receptor [1], the Ki is over 398 nM.

For `c1cc2c(cc1OC1CCNCC1)CCN(C1CCC1)CC2`, the Ki at Histamine H3 receptor [1] is 0.316 nM. Moreover, the CLH in the data set on Liver microsome [3] was determined as 1.2 mL/min/g; in the data set with Liver microsome [4] it was 0.5 mL/min/g.

Take `CN(C)CCCOc1ccc2c(c1)CCNCC2`: the Ki at Histamine H3 receptor [1] is 100 nM.

Regarding `c1ccc(COc2ccc3c(c2)CCN(CC2CC2)CC3)cc1`, at Cytochrome P450 2D6, half-maximal inhibition (IC50) required 1500 nM. Further, the values for the Ki at Histamine H3 receptor [1] and at Histamine H1 receptor were 10 nM and 1000 nM, respectively. Moreover, the results for the CLH with Liver microsome [3] and in the data set on Liver microsome [4] were over 50 mL/min/g and 11 mL/min/g, respectively.

`O=C(N[C@H]1CCN(Cc2ccc(OCCCN3CCCCC3)cc2)C1)c1ccc2c(c1)OCO2`: the figures for the Ki on Histamine H3 receptor [1] and on Histamine H1 receptor were 0.0251 nM and over 2510 nM, respectively. Further, the Activity is reported as 96% at Albumin and 78% in the data set with Rattus norvegicus [15].

On to `c1ccc(COc2ccc3c(c2)CCN(C2CCCCC2)CC3)cc1`, for which, on Histamine H3 receptor [1], the Ki was 10 nM.

Consider `CC(C)CN1CCc2ccc(OCc3ccccc3)cc2CC1`, for which the Ki on Histamine H3 receptor [1] is 25.1 nM.

Take `Cn1c(=O)ccc2cc(COc3ccc4c(c3)CCN(C3CCC3)CC4)ccc21`: the IC50 on Cytochrome P450 2D6 worked out at 4200 nM. In addition, on Histamine H3 receptor [1], the Ki was 0.398 nM. Also, the CLH worked out at 2.5 mL/min/g in the data set with Liver microsome [3] and 3.4 mL/min/g in the data set with Liver microsome [4].

Regarding `CC(C)N1CCc2ccc(OCc3ccccc3)cc2CC1`, the inhibition constant Ki at Histamine H3 receptor [1] was 20 nM.

As to `CC(C)N1CCC(Oc2ccc3c(c2)CCNCC3)CC1`, the Ki at Histamine H3 receptor [1] was 2.51 nM; at Histamine H1 receptor, over 2510 nM.

As to `c1cc2c(cc1OCCN1CCCCC1)CCN(CC1CC1)CC2`, the Ki at Histamine H3 receptor [1] was 0.794 nM; on Histamine H1 receptor, over 2000 nM.

As for `c1cc2c(cc1OCCCN1CCCCC1)CCN2`, at Histamine H3 receptor [1], the Ki is 15.8 nM.

Regarding `O=C(c1ccc(OCCCc2cnc[nH]2)cc1)C1CC1` [CIPROXIFAN], the Activity in the data set with Rattus norvegicus [2] is 100%; at Albumin, 80%. The Ki at Histamine H1 receptor was over 2510 nM.

In the case of `c1cc2c(cc1OCCCN1CCCCC1)CCNC2`, on Histamine H3 receptor [1], the Ki was 2.51 nM.

`c1ccc(COc2ccc3c(c2)CCN(C2CCC2)CC3)cc1` yielded an IC50 against Cytochrome P450 2D6 of 600 nM. The inhibition constant (Ki) on Histamine H3 receptor [1] was 0.251 nM. The CLH with Liver microsome [3] was over 50 mL/min/g; in the data set on Liver microsome [4], 12 mL/min/g.

On Cytochrome P450 2D6, `Cc1cc(C(=O)N2CCC(Oc3ccc4c(c3)CCN(C3CCC3)CC4)CC2)no1` yielded an IC50 of 43000 nM. Besides, the Ki at Histamine H3 receptor [1] is 1.58 nM. The Activity in the data set on Rattus norvegicus [2] was found to be 11%. For the same molecule, the CLH with Liver microsome [3] was found to be 3.5 mL/min/g; in the data set with Liver microsome [4], 1.2 mL/min/g.

With `c1ccc(N2CCc3ccc(OCCCN4CCCCC4)cc3CC2)cc1`, the figures for the Ki on Histamine H3 receptor [1] and at Histamine H1 receptor were 10 nM and 1000 nM, respectively.

As to `c1cc2c(cc1OCCCN1CCCCC1)CCN(CC1CC1)CC2`, the Ki at Histamine H3 receptor [1] was 0.501 nM; on Histamine H1 receptor it was 2000 nM.

For the molecule `OC1CCN(CCCOc2ccc3c(c2)CCNCC3)CC1`, the Ki on Histamine H3 receptor [1] is over 10000 nM.

Turning to `c1ccc(COc2ccc3c(c2)CCNCC3)cc1`, on Histamine H3 receptor [1], the inhibition constant (Ki) is over 10000 nM.

Turning to `c1ccc(COc2ccc3c(c2)CCN(C2CC2)CC3)cc1`, the Ki at Histamine H3 receptor [1] was 5.01 nM.

Consider `c1cc2c(cc1OCCN1CCCCC1)CCNCC2`, for which the Ki on Histamine H3 receptor [1] was 158 nM.

Source of the values: ChEMBL document CHEMBL3091427, “The discovery of the benzazepine class of histamine H3 receptor antagonists” (Bioorg Med Chem Lett, 2013).
